pIC50: −log10 of the molar value.
target: T1, Tyrosine-protein phosphatase non-receptor type 6 (Homo sapiens, UniProt P29350); assay: Inhibition of GST-tagged human SHP1 expressed in Escherichia coli at 20 ug/ml using pNPP as substrate relative to control
T1 sequence (P29350 whole entry): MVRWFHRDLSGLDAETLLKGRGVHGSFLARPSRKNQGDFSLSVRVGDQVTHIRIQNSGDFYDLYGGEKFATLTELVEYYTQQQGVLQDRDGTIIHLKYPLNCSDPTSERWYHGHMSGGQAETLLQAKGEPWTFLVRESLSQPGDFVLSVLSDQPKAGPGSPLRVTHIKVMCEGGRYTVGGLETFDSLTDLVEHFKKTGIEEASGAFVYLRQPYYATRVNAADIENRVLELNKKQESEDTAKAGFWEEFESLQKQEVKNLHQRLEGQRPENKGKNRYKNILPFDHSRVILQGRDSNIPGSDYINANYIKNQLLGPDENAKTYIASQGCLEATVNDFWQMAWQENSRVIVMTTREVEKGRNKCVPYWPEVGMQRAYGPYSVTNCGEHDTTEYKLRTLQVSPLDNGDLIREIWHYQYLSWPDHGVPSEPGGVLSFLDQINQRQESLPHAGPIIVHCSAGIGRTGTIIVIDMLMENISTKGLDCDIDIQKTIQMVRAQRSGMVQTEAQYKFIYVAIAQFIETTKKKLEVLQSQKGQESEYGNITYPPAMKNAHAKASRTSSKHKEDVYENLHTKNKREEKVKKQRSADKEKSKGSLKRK

inhibition | Compound
96.1% | Cc1ccc([C@H]2[C@]34NC(=O)C[C@H]3Oc3ccc(C)cc3[C@@H]4O[C@@]23C(=O)N(Cc2ccccc2)c2ccccc23)cc1
31.1% | COC(=O)C[C@H]1Oc2ccc(OC)cc2[C@@H]2O[C@@]3(C(=O)N(Cc4ccccc4)c4ccccc43)[C@@H](c3ccc(C)cc3)[C@]12[N+](=O)[O-]
98.8% | COC(=O)/C=C/Oc1c(OC)cccc1[C@@H]1O[C@@]2(C(=O)N(Cc3ccccc3)c3ccccc32)[C@@H](c2ccc(Br)cc2)[C@@H]1[N+](=O)[O-]

target: T2, Tyrosine-protein phosphatase non-receptor type 2 (Homo sapiens, UniProt P17706); assay: Inhibition of GST-tagged human […] expressed in Escherichia coli using pNPP as substrate
T2 sequence (P17706 whole entry): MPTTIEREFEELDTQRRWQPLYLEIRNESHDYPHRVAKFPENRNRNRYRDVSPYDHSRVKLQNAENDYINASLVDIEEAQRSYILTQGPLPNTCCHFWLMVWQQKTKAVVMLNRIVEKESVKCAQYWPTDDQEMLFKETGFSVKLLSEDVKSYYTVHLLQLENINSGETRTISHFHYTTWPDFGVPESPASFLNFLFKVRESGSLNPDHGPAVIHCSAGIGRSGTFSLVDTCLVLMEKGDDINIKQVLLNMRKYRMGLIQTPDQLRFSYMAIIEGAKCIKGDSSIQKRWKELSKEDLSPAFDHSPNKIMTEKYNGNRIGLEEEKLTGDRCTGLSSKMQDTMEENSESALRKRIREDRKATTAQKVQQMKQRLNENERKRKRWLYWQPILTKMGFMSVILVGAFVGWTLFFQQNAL

pIC50 | Compound
4.45 | Cc1ccc([C@H]2[C@]34NC(=O)C[C@H]3Oc3ccc(C)cc3[C@@H]4O[C@@]23C(=O)N(Cc2ccccc2)c2ccccc23)cc1

target: T1, Tyrosine-protein phosphatase non-receptor type 6; assay: Inhibition of GST-tagged human SHP1 expressed in Escherichia coli using pNPP as substrate

pIC50 | Compound
4.97 | Cc1ccc([C@H]2[C@]34NC(=O)C[C@H]3Oc3ccc(C)cc3[C@@H]4O[C@@]23C(=O)N(Cc2ccccc2)c2ccccc23)cc1
5.28 | COC(=O)/C=C/Oc1c(OC)cccc1[C@@H]1O[C@@]2(C(=O)N(Cc3ccccc3)c3ccccc32)[C@@H](c2ccc(Br)cc2)[C@@H]1[N+](=O)[O-]

target: Receptor-type tyrosine-protein phosphatase F (Homo sapiens) (UniProt P10586); assay: Inhibition of GST-tagged human LAR expressed in Escherichia coli at 20 ug/ml using pNPP as substrate relative to control
Sequence (P10586 whole entry): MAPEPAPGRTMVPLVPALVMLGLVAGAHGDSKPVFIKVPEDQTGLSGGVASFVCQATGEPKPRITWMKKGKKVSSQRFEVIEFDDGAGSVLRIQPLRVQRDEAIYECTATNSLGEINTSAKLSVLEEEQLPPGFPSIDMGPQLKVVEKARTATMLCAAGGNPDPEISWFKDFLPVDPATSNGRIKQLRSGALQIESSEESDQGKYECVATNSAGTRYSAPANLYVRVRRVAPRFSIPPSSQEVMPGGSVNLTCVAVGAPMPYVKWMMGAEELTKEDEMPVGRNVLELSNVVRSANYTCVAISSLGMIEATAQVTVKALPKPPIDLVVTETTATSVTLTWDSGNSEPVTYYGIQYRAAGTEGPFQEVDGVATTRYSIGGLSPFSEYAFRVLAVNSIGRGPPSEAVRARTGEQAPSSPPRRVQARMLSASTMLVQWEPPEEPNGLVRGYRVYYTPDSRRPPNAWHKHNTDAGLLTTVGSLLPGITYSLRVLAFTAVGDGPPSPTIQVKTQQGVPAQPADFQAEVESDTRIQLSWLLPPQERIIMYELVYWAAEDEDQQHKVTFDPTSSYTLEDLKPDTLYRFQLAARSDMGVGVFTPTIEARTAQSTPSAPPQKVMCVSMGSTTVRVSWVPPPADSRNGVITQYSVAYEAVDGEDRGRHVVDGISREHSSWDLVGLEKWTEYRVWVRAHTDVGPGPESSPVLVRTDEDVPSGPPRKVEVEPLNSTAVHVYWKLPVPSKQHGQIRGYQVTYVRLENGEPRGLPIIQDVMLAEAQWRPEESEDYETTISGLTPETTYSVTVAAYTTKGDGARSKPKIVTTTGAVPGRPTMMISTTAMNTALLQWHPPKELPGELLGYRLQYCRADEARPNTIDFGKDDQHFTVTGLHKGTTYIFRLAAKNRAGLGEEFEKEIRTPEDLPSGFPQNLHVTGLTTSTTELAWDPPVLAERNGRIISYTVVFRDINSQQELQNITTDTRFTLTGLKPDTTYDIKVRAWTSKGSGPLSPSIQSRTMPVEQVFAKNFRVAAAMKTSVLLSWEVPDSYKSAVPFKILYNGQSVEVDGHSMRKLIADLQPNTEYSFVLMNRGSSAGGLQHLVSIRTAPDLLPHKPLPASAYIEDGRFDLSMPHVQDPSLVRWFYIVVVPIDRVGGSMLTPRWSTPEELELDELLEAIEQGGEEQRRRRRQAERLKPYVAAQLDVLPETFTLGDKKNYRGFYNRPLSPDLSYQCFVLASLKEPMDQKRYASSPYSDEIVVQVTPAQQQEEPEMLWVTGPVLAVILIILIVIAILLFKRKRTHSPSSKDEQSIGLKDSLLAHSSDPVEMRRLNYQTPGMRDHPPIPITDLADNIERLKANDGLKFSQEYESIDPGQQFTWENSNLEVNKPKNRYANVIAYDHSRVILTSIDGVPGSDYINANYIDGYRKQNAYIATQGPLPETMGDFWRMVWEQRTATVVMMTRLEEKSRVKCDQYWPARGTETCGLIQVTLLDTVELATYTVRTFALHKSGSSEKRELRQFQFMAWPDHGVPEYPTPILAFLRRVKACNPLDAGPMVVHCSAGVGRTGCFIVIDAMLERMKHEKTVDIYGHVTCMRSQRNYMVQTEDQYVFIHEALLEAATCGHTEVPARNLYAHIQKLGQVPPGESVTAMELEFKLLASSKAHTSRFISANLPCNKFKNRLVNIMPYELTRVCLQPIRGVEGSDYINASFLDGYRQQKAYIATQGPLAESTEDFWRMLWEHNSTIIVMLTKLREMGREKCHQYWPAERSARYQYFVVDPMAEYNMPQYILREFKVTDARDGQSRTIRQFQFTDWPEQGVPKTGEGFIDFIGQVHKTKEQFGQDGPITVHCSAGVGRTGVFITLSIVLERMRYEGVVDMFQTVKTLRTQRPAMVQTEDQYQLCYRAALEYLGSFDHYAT

inhibition | Compound
6.72% | Cc1ccc([C@H]2[C@]34NC(=O)C[C@H]3Oc3ccc(C)cc3[C@@H]4O[C@@]23C(=O)N(Cc2ccccc2)c2ccccc23)cc1
15.5% | COC(=O)C[C@H]1Oc2ccc(OC)cc2[C@@H]2O[C@@]3(C(=O)N(Cc4ccccc4)c4ccccc43)[C@@H](c3ccc(C)cc3)[C@]12[N+](=O)[O-]
18.7% | COC(=O)/C=C/Oc1c(OC)cccc1[C@@H]1O[C@@]2(C(=O)N(Cc3ccccc3)c3ccccc32)[C@@H](c2ccc(Br)cc2)[C@@H]1[N+](=O)[O-]

target: T3, Tyrosine-protein phosphatase non-receptor type 1 (Homo sapiens, UniProt P18031); assay: Inhibition of recombinant human PTP1B catalytic domain expressed in Escherichia coli BL21-CodonPlus (DE3) using pNPP as substrate measured for 2 mins
T3 sequence (P18031 whole entry): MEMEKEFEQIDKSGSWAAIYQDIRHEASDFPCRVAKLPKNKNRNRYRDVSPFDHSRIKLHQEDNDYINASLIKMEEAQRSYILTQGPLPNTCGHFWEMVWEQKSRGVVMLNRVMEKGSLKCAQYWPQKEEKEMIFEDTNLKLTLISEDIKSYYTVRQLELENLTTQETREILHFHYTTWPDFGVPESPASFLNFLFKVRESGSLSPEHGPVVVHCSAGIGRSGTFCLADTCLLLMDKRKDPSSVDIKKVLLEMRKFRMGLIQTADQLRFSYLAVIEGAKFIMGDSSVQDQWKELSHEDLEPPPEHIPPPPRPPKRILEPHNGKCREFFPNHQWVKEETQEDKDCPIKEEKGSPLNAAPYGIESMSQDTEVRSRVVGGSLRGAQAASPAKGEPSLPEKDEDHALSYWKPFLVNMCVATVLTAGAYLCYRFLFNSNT

Compound | pIC50
Cc1ccc([C@H]2[C@]34NC(=O)C[C@H]3Oc3ccc(C)cc3[C@@H]4O[C@@]23C(=O)N(Cc2ccccc2)c2ccccc23)cc1 | 5.33
COC(=O)C[C@H]1Oc2c(OC)cccc2[C@@H]2O[C@@]3(C(=O)N(Cc4ccccc4)c4ccccc43)[C@@H](c3ccc(C)cc3)[C@]12[N+](=O)[O-] | 5.09
O=C1C[C@H]2Oc3ccc(Cl)cc3[C@@H]3O[C@@]4(C(=O)N(Cc5ccccc5)c5ccccc54)[C@@H](c4ccc(Br)cc4)[C@]23N1 | 5.22
COC(=O)C[C@H]1Oc2ccc(OC)cc2[C@@H]2O[C@@]3(C(=O)N(Cc4ccccc4)c4ccccc43)[C@@H](c3ccc(C)cc3)[C@]12[N+](=O)[O-] | 5.34
COC(=O)C[C@H]1Oc2c(OC)cccc2[C@@H]2O[C@@]3(C(=O)N(Cc4ccccc4)c4ccccc43)[C@@H](c3ccccc3OC)[C@]12[N+](=O)[O-] | 5.23
COC(=O)/C=C/Oc1c(OC)cccc1[C@@H]1O[C@@]2(C(=O)N(Cc3ccccc3)c3ccccc32)[C@@H](c2ccc(Br)cc2)[C@@H]1[N+](=O)[O-] | 5.41
COC(=O)/C=C/Oc1ccc(OC)cc1[C@@H]1O[C@@]2(C(=O)N(Cc3ccccc3)c3ccccc32)[C@@H](c2ccc(Br)cc2)[C@@H]1[N+](=O)[O-] | 5.27
COc1ccc2c(c1)[C@@H]1O[C@@]3(C(=O)N(Cc4ccccc4)c4ccccc43)[C@@H](c3ccc(C)cc3)[C@@]13NC(=O)C[C@H]3O2 | 5.10
Cc1ccc2c(c1)[C@@H]1O[C@@]3(C(=O)N(Cc4ccccc4)c4ccccc43)[C@@H](c3ccccc3)[C@@]13NC(=O)C[C@H]3O2 | 4.99
COC(=O)C[C@H]1Oc2ccc(Cl)cc2[C@@H]2O[C@@]3(C(=O)N(Cc4ccccc4)c4ccccc43)[C@@H](c3ccc(Br)cc3)[C@]12[N+](=O)[O-] | 5.33
COc1cccc2c1O[C@@H]1CC(=O)N[C@]13[C@H]2O[C@@]1(C(=O)N(Cc2ccccc2)c2ccccc21)[C@H]3c1ccc(C)cc1 | 5.15

The remaining lines, values ahead:

pIC50 | Compound
5.18 | COC(=O)C[C@H]1Oc2ccc(OC)cc2[C@@H]2O[C@@]3(C(=O)N(Cc4ccccc4)c4ccccc43)[C@@H](c3ccc(Br)cc3)[C@]12[N+](=O)[O-]
5.27 | COC(=O)C[C@H]1Oc2c(OC)cccc2[C@@H]2O[C@@]3(C(=O)N(Cc4ccccc4)c4ccccc43)[C@@H](c3ccc(Br)cc3)[C@]12[N+](=O)[O-]
5.00 | COc1ccccc1[C@H]1[C@]23NC(=O)C[C@H]2Oc2c(OC)cccc2[C@@H]3O[C@@]12C(=O)N(Cc1ccccc1)c1ccccc12
5.21 | COc1cccc2c1O[C@@H]1CC(=O)N[C@]13[C@H]2O[C@@]1(C(=O)N(Cc2ccccc2)c2ccccc21)[C@H]3c1ccc(Br)cc1
5.25 | Cc1ccc([C@H]2[C@]34NC(=O)C[C@H]3Oc3ccc(Cl)cc3[C@@H]4O[C@@]23C(=O)N(Cc2ccccc2)c2ccccc23)cc1
5.19 | COc1ccc2c(c1)[C@@H]1O[C@@]3(C(=O)N(Cc4ccccc4)c4ccccc43)[C@@H](c3ccc(Br)cc3)[C@@]13NC(=O)C[C@H]3O2
5.17 | COC(=O)/C=C/Oc1c(OC)cccc1[C@@H]1O[C@@]2(C(=O)N(Cc3ccccc3)c3ccccc32)[C@@H](c2ccc(C)cc2)[C@@H]1[N+](=O)[O-]
4.88 | COC(=O)/C=C/Oc1ccc(OC)cc1[C@@H]1O[C@@]2(C(=O)N(Cc3ccccc3)c3ccccc32)[C@@H](c2ccc(C)cc2)[C@@H]1[N+](=O)[O-]

target: T4, Tyrosine-protein phosphatase non-receptor type 2 (Homo sapiens) (UniProt P17706); assay: Inhibition of GST-tagged human […] expressed in Escherichia coli at 20 ug/ml using pNPP as substrate relative to control
T4 sequence (whole entry): T2 sequence (P17706 whole entry)

inhibition | Compound
19.4% | Cc1ccc([C@H]2[C@]34NC(=O)C[C@H]3Oc3ccc(C)cc3[C@@H]4O[C@@]23C(=O)N(Cc2ccccc2)c2ccccc23)cc1
10.3% | COC(=O)C[C@H]1Oc2ccc(OC)cc2[C@@H]2O[C@@]3(C(=O)N(Cc4ccccc4)c4ccccc43)[C@@H](c3ccc(C)cc3)[C@]12[N+](=O)[O-]
38.3% | COC(=O)/C=C/Oc1c(OC)cccc1[C@@H]1O[C@@]2(C(=O)N(Cc3ccccc3)c3ccccc32)[C@@H](c2ccc(Br)cc2)[C@@H]1[N+](=O)[O-]

— ChEMBL document CHEMBL4000238, “Discovery of core-structurally novel PTP1B inhibitors with specific selectivity containing oxindole-fused spirotetrahydrofurochroman by one-pot reaction” (Bioorg Med Chem Lett, 2017)
